Experimental findings from patent US12545680B2, “Substituted oxaspiro[4.5]decanes as mor receptor agonists” (SHANGHAI HAIYAN PHARMACEUTICAL TECHNOLOGY CO., LTD., priority 2020, dated 2026) are described below.

SMILES strings stand for the structures. Like-named read-outs stand apart in the source and are kept apart here.

The target of experiment [1] is T1, MOR receptor (OPRM1) (Homo sapiens, UniProt P35372). The experiment in a line: β-Arrestin cell experiment. As to conditions: maximum effect relative to morphine = 100%; for β-arrestin Emax (%) Morphine was 100%: PathHunter CHO-K1 OPRM1 β-Arrestin cell line; for Emax: read-out: β-arrestin Emax (%) Morphine was 100%, PathHunter CHO-K1 OPRM1 β-Arrestin cell line.
T1 sequence (P35372 whole entry): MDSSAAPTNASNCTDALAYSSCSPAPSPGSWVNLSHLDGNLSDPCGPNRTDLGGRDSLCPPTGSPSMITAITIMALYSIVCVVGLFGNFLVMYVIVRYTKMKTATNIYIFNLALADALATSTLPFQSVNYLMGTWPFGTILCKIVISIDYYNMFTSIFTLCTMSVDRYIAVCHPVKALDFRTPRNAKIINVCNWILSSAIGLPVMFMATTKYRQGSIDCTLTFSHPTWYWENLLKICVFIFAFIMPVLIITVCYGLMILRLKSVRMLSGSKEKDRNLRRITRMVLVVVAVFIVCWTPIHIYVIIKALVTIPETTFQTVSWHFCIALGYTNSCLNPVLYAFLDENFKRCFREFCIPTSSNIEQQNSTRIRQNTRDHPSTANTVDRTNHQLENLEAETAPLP
For experiment [2], the target named is T1, MOR receptor (OPRM1). The experiment in a line: HTRF-cAMP cell experiment. As to conditions: for cAMP Emax (%) Morphine was 100% / EC50: PathHunter CHO-K1 OPRM1 β-Arrestin cell line; for cAMP Emax (%) Morphine was 100% / Emax: maximum effect relative to morphine = 100%; for EC50: NKH477-stimulated cAMP, HTRF; for Emax: read-out: cAMP Emax (%) Morphine was 100%, PathHunter CHO-K1 OPRM1 β-Arrestin cell line. (In general: Time-resolved FRET reads energy transfer from a long-lived donor to a nearby acceptor.)

As a reminder, the EC50 is the concentration giving half of the maximal effect. For the compound `CCC1CC(NCC[C@@]2(c3ccccn3)CCOC3(CCCC3)C2)c2ccnn21` (mixture of isomers) [Compound H-4-1, 6-ethyl-N-(2-((R)-9-(pyridin-2-yl)-6-oxaspiro[4.5]decan-9-yl)ethyl)-5,6-dihydro-4H-pyrrolo[1,2-b]pyrazol-4-amine], the “β-arrestin Emax (%) Morphine was 100%” value in experiment [1] amounted to 1.8%. Further, the “cAMP Emax (%) Morphine was 100%” value in experiment [2] is recorded as 64.1%. In experiment [2] (cAMP EC50 (nM)), the EC50 is 8 nM.

For `CCC1CC(NCC[C@@]2(c3ccccn3)CCOC3(CCCC3)C2)c2ccnn21` (mixture of isomers) [Compound H-4-2, 6-ethyl-N-(2-((R)-9-(pyridin-2-yl)-6-oxaspiro[4.5]decan-9-yl)ethyl)-5,6-dihydro-4H-pyrrolo[1,2-b]pyrazol-4-amine], the “β-arrestin Emax (%) Morphine was 100%” value in experiment [1] is reported as 4.8%. In addition, the “cAMP Emax (%) Morphine was 100%” value in experiment [2] is listed as 91.8%. Also, the EC50 in experiment [2] (cAMP EC50 (nM)) came to 18 nM.

In general, Emax refers to the size of the effect at its maximum, as opposed to the concentration needed. As for `CC1CC(NCC[C@@]2(c3ccccn3)CCOC3(CCCC3)C2)c2ccnn21` (mixture of isomers) [Compound H-12-1, 6-methyl-N-(2-((R)-9-(pyridin-2-yl)-6-oxaspiro[4.5]decan-9-yl)ethyl)-5,6-dihydro-4H-pyrrolo[1,2-b]pyrazol-4-amine], in experiment [1], the Emax came out at 12%. Moreover, in experiment [2], the “cAMP Emax (%) Morphine was 100%” value stood at 99.5%. This compound also returned an EC50 in experiment [2] (cAMP EC50 (nM)) of 12 nM.

`CC1CC(NCC[C@@]2(c3ccccn3)CCOC3(CCCC3)C2)c2ccnn21` (mixture of isomers) [Compound H-12-2, 6-methyl-N-(2-((R)-9-(pyridin-2-yl)-6-oxaspiro[4.5]decan-9-yl)ethyl)-5,6-dihydro-4H-pyrrolo[1,2-b]pyrazol-4-amine]: the “β-arrestin Emax (%) Morphine was 100%” value in experiment [1] was 15.7%. Moreover, the “cAMP Emax (%) Morphine was 100%” value in experiment [2] is reported as 77.8%. The EC50 in experiment [2] (read-out: cAMP EC50) stood at 12 nM.

As to `c1ccc([C@]2(CCNC3CCn4nccc43)CCOC3(CCCC3)C2)nc1` (stereo partly drawn) [Compound H-1, N-(2-((R)-9-(pyridin-2-yl)-6-oxaspiro[4.5]decan-9-yl)ethyl)-5,6-dihydro-4H-pyrrolo[1,2-b]pyrazol-4-amine], the Emax stood at 29.7% in experiment [1] and 125% in experiment [2]. The compound also returned an EC50 in experiment [2] (cAMP EC50 (nM)) of 49 nM.

Regarding `COC(C)(C)C1CC(NCC[C@@]2(c3ccccn3)CCOC3(CCCC3)C2)c2ccnn21` (stereo partly drawn) [Compound H-2, 6-(2-methoxypropan-2-yl)-N-(2-((R)-9-(pyridin-2-yl)-6-oxaspiro[4.5]decan-9-yl)ethyl)-5,6-dihydro-4H-pyrrolo[1,2-b]pyrazol-4-amine], the Emax was 6.2% in experiment [1] and 93.2% in experiment [2]. The EC50 in experiment [2] (cAMP EC50 (nM)) turned out to be 47 nM.

For `c1ccc([C@]2(CCNC3CC(C4CC4)n4nccc43)CCOC3(CCCC3)C2)nc1` (stereo partly drawn) [Compound H-3, 6-cyclopropyl-N-(2-((R)-9-(pyridin-2-yl)-6-oxaspiro[4.5]decan-9-yl)ethyl)-5,6-dihydro-4H-pyrrolo[1,2-b]pyrazol-4-amine], the Emax came to 4.9% in experiment [1] and 74.6% in experiment [2]. The compound also yielded a concentration giving a half-maximal response (EC50) in experiment [2] (cAMP EC50 (nM)) of 17 nM.

For `c1ccc([C@]2(CCNC3CC(C4CCCC4)n4nccc43)CCOC3(CCCC3)C2)nc1` (stereo partly drawn) [Compound H-5, 6-cyclopentyl-N-(2-((R)-9-(pyridin-2-yl)-6-oxaspiro[4.5]decan-9-yl)ethyl)-5,6-dihydro-4H-pyrrolo[1,2-b]pyrazol-4-amine], the Emax in experiment [1] came to 4.8%.

Regarding `CC(C)(C)C1CC(NCC[C@@]2(c3ccccn3)CCOC3(CCCC3)C2)c2ccnn21` (stereo partly drawn) [Compound H-6, 6-tert-butyl-N-(2-((R)-9-(pyridin-2-yl)-6-oxaspiro[4.5]decan-9-yl)ethyl)-5,6-dihydro-4H-pyrrolo[1,2-b]pyrazol-4-amine], the Emax in experiment [1] was found to be 15.3%; in experiment [2], 99.6%. Also, the EC50 in experiment [2] (cAMP EC50 (nM)) was 9 nM.

For the compound `CC(C)(F)C1CC(NCC[C@@]2(c3ccccn3)CCOC3(CCCC3)C2)c2ccnn21` (stereo partly drawn) [Compound H-7, 6-(2-fluoropropan-2-yl)-N-(2-((R)-9-(pyridin-2-yl)-6-oxaspiro[4.5]decan-9-yl)ethyl)-5,6-dihydro-4H-pyrrolo[1,2-b]pyrazol-4-amine], the figures for the Emax in experiment [1] and in experiment [2] were 22.1% and 105%, respectively. The compound also came in with an EC50 in experiment [2] (cAMP EC50 (nM)) of 29 nM.

Take `CC(C)C1CC(NCC[C@@]2(c3ccccn3)CCOC3(CCCC3)C2)c2c(F)cnn21` (stereo partly drawn) [Compound H-9, 3-fluoro-6-isopropyl-N-(2-((R)-9-(pyridin-2-yl)-6-oxaspiro[4.5]decan-9-yl)ethyl)-5,6-dihydro-4H-pyrrolo[1,2-b]pyrazol-4-amine]: the Emax in experiment [1] was 1%.

As for `CC1(C2CC(NCC[C@@]3(c4ccccn4)CCOC4(CCCC4)C3)c3ccnn32)CC1` (stereo partly drawn) [Compound H-10, 6-(1-methylcyclopropyl)-N-(2-((R)-9-(pyridin-2-yl)-6-oxaspiro[4.5]decan-9-yl)ethyl)-5,6-dihydro-4H-pyrrolo[1,2-b]pyrazol-4-amine], the Emax in experiment [1] worked out at 5.1%; in experiment [2], 74.7%. Besides, the EC50 in experiment [2] (cAMP EC50 (nM)) was found to be 11 nM.

For `CC(C)C1CC(NCC[C@@]2(c3ccccn3)CCOC3(CCCC3)C2)c2ccnn21` (stereo partly drawn) [Compound H-11, 6-(isopropyl)-N-(2-((R)-9-(pyridin-2-yl)-6-oxaspiro[4.5]decan-9-yl)ethyl)-5,6-dihydro-4H-pyrrolo[1,2-b]pyrazol-4-amine], the results for the Emax in experiment [1] and in experiment [2] were 4.3% and 84.8%, respectively. Also, the EC50 in experiment [2] (cAMP EC50 (nM)) is 15 nM.

Consider `CCCC1CC(NCC[C@@]2(c3ccccn3)CCOC3(CCCC3)C2)c2ccnn21` (stereo partly drawn) [Compound H-14, 6-propyl-N-(2-((R)-9-(pyridin-2-yl)-6-oxaspiro[4.5]decan-9-yl)ethyl)-5,6-dihydro-4H-pyrrolo[1,2-b]pyrazol-4-amine], for which the Emax in experiment [1] turned out to be 7.2%; in experiment [2], 73%. In experiment [2] (cAMP EC50 (nM)), this compound registered an EC50 of 31 nM.

In turn, `CCC(C)C1CC(NCC[C@@]2(c3ccccn3)CCOC3(CCCC3)C2)c2ccnn21` (stereo partly drawn) [Compound H-15, 6-(sec-butyl)-N-(2-((R)-9-(pyridin-2-yl)-6-oxaspiro[4.5]decan-9-yl)ethyl)-5,6-dihydro-4H-pyrrolo[1,2-b]pyrazol-4-amine] displayed an EC50 in experiment [2] (cAMP EC50 (nM)) of 84 nM. Further, the Emax in experiment [2] stood at 64.9%.

Regarding `FC(F)(F)C1(C2CC(NCC[C@@]3(c4ccccn4)CCOC4(CCCC4)C3)c3ccnn32)CC1` (stereo partly drawn) [Compound H-17, N-(2-((R)-9-(pyridin-2-yl)-6-oxaspiro[4.5]decan-9-yl)ethyl)-6-(1-(trifluoromethyl)cyclopropyl)-5,6-dihydro-4H-pyrrolo[1,2-b]pyrazol-4-amine], the Emax came to 2.6% in experiment [1] and 68.6% in experiment [2]. Also, the EC50 in experiment [2] (cAMP EC50 (nM)) stood at 31 nM.

For the compound `CC(C)(C1CC(NCC[C@@]2(c3ccccn3)CCOC3(CCCC3)C2)c2ccnn21)C(F)(F)F` (stereo partly drawn) [Compound H-18, N-(2-((R)-9-(pyridin-2-yl)-6-oxaspiro[4.5]decan-9-yl)ethyl)-6-(1,1,1,-trifluoro-2-methylprop-2-yl)-5,6-dihydro-4H-pyrrolo[1,2-b]pyrazol-4-amine], the “cAMP Emax (%) Morphine was 100%” value in experiment [2] was found to be 89.1%. The EC50 in experiment [2] (read-out: cAMP EC50) came to 68 nM.

On to `c1ccc([C@]2(CCNC3CC4(CCCC4)n4nccc43)CCOC3(CCCC3)C2)nc1` (stereo partly drawn) [Compound H-19, N-(2-((R)-9-(pyridin-2-yl)-6-oxaspiro[4.5]decan-9-yl)ethyl)-4′,5′-dihydrospiro[cyclopentane-1,6′-pyrrolo[1,2-b]pyrazol]-4′-amine], for which the Emax in experiment [1] was 17.3%; in experiment [2], 94.1%. In experiment [2] (cAMP EC50 (nM)), this compound came in with an EC50 of 21 nM.

On to `c1ccc([C@]2(CCNC3CC4(CCOCC4)n4nccc43)CCOC3(CCCC3)C2)nc1` (stereo partly drawn) [Compound H-20, N-(2-((R)-9-(pyridin-2-yl)-6-oxaspiro[4.5]decan-9-yl)ethyl)-2,3,4′,5,5′,6-hexahydrospiro[pyran-4,6′-pyrrolo[1,2-b]pyrazol]-4′-amine], for which the EC50 in experiment [2] (cAMP EC50 (nM)) came to 4 nM. Also, the Emax in experiment [2] was 107%.

For `c1ccc([C@]2(CCNC3CC4(CCC4)n4nccc43)CCOC3(CCCC3)C2)nc1` (stereo partly drawn) [Compound H-21, N-(2-((R)-9-(pyridin-2-yl)-6-oxaspiro[4.5]decan-9-yl)ethyl)-4′,5′-dihydrospiro[cyclobutane-1,6′-pyrrolo[1,2-b]pyrazol]-4′-amine], the figures for the Emax in experiment [1] and in experiment [2] were 8% and 70.8%, respectively. This compound came in with an EC50 in experiment [2] (cAMP EC50 (nM)) of 22 nM.

For the compound `CC1(C)CC(NCC[C@@]2(c3ccccn3)CCOC3(CCCC3)C2)c2ccnn21` (stereo partly drawn) [Compound H-22, 6,6-dimethyl-N-(2-((R)-9-(pyridin-2-yl)-6-oxaspiro[4.5]decan-9-yl)ethyl)-5,6-dihydro-4H-pyrrolo[1,2-b]pyrazol-4-amine], the values for the Emax in experiment [1] and in experiment [2] were 39.9% and 104%, respectively. The EC50 in experiment [2] (cAMP EC50 (nM)) came to 11 nM.
